20 compounds from patent US11897867B2, “6-phenyl-4,5-dihydropyridazin-3(2H)-one derivatives as PDE3A and PDE3B inhibitors for treating cancer” (Bayer Aktiengesellschaft, priority 2017, dated 2024) can be followed below.

pIC50: −log10 of the molar value.

The target in assay [1] is T1, human full length PDE3B (Homo sapiens, UniProt Q13370).
T1 construct: Sf9 cells overexpressing human full length PDE3B; purchased SB Drug Discovery, UK; host or cells: Sf9 cells (cell extract)
The experiment in a line: PDE3B enzyme inhibition (3H-cAMP Scintillation Proximity Assay). The class given is biochemical. Particulars: PDE3B cell extract from Sf9 cells, 60 min room temperature; read-out: Target IC50 PDE3B IC50. The procedure:
The commercially available 3H-cAMP Scintillation Proximity Assay (SPA, Perkin Elmer) system was used for enzyme inhibition studies. For the determination of the in vitro effect of test substances on the PDE3B reactions 2 μl of the respective test compound solution in DMSO (serial dilutions) were placed in wells of microtiter plates (Isoplate-96/200W; Perkin Elmer). 50 μl of a dilution of PDE3B cell extract from Sf9 cells overexpressing human full length PDE3B (SB Drug Discovery, UK) in buffer A (50 mM Tris/HCl pH 7.5, 8.3 mM MgCl2, 1.7 mM EDTA, 0.2% BSA) was added. The dilution of the PDE3B cell extract was chosen such that the reaction kinetics was linear and less than 70% of the substrate was consumed (typical dilution 1:6000). The reaction was started by addition of 50 μl (0.025 μCi) of 1:2000 in buffer A w/o BSA diluted substrate [8-3H] adenosine 3′,5′-cyclic phosphate (1 μCi/μl; Perkin Elmer). After incubation at room temperature for 60 min, the reaction was stopped by addition of 25 μl of a suspension containing 18 mg/ml yttrium scintillation proximity beads (Perkin Elmer) in water. The microtiter plates were sealed and measured in a Microbeta scintillation counter (PerkinElmer Wallac). IC50 values were determined from sigmoidal curves by plotting percentage PDE3B activity vs log compound concentration.

Assay [2] concerns SK-MEL-3 (melanoma). The experiment in a line: Cell proliferation measurement (Cell Titer Glo), SK-MEL-3. Particulars: Homo sapiens, SK-MEL3, SK-MEL-3 cells, 72 h treatment, read-out: Anti-proliferation IC50 SK-MEL-3 (melanoma). Format: cell-based. As for the experimental part: (§1) The antiproliferative activity of the compounds of the general formula (I) was examined in vitro in human cancer cells. For this purpose, 1000 cells (or 500 HeLa cells) were plated in 384-well plates with appropriate growth medium and incubated at 37° C. overnight. After 24 h, the cells on the test plate were treated with the compounds of the general formula (I) as and incubated at 37° C. for 72 h. The compounds were added to the cells by means of an HP D300 digital dispenser in a 10 (or more)-step dilution series. As control, the cells were treated with vehicle (DMSO at 0.3% final concentration). After 72 h, the cells were treated with 20 μl/well of 50% CTG solution in PBS (Promega Cell Titer Glo (catalogue #G755B and G756B)) and incubated at room temperature for 10 min, and luminescence was measured by means of a VICTOR V (Perkin Elmer), in order to determine cell viability at the end of treatment. The percentage effect on cell growth and the IC50 derived therefrom were determined for each test substance using the values from untreated wells (=percent viability). The IC50 values were calculated using a 4-parameter fit.

The subject of assay [3] is HeLa cells (cervical cancer). Briefly: Cell proliferation measurement (Cell Titer Glo), HeLa. The class given is cell-based. The conditions noted are these: Homo sapiens, 72 h treatment, read-out: Anti-proliferation IC50 HeLa (Cervical cancer). As for the experimental part: as §1
The target in assay [4] is T2, human full length PDE3A (Homo sapiens, UniProt Q14432).
T2 construct: Sf9 cells overexpressing human full length PDE3A; purchased SB Drug Discovery, UK; host or cells: Sf9 cells (cell extract)
T2 sequence (Q14432 whole entry): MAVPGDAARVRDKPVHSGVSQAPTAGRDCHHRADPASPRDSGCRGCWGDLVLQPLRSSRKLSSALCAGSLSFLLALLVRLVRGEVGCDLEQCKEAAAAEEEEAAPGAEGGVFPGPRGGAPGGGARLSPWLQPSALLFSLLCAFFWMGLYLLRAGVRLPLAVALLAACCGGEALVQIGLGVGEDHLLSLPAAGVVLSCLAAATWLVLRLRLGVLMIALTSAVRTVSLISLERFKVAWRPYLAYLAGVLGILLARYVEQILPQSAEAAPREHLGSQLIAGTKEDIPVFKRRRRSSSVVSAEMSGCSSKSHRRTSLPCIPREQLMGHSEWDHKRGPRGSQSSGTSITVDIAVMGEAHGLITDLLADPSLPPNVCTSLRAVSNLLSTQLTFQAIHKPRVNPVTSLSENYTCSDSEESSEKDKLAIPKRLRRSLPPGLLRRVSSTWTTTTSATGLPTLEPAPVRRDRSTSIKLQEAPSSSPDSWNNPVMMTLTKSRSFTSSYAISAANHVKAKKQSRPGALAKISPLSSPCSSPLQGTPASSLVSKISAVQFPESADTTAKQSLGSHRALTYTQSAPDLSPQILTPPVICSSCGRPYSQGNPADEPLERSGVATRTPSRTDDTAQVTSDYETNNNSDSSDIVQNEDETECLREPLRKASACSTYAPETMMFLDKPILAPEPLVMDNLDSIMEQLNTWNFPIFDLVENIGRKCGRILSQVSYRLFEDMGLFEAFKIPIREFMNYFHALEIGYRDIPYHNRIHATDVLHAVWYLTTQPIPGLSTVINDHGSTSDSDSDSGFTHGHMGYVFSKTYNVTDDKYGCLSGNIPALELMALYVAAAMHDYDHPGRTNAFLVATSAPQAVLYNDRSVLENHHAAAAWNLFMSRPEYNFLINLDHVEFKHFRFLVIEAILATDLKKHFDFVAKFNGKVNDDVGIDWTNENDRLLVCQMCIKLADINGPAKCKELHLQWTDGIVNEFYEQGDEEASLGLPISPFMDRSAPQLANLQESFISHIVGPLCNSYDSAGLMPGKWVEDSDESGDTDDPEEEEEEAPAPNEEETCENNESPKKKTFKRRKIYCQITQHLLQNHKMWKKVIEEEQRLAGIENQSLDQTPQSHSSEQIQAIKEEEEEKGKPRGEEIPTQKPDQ
The experiment in a line: PDE3A enzyme inhibition (3H-cAMP Scintillation Proximity Assay). The conditions noted are these: PDE3A cell extract from Sf9 cells, 60 min room temperature; read-out: Target IC50 PDE3A IC50. The class given is biochemical. The procedure:
The commercially available 3H-cAMP Scintillation Proximity Assay (SPA, Perkin Elmer) system was used for enzyme inhibition studies. For the determination of the in vitro effect of test substances on the PDE3A reactions 2 μl of the respective test compound solution in DMSO (serial dilutions) were is placed in wells of microtiter plates (Isoplate-96/200W; Perkin Elmer). 50 μl of a dilution of PDE3A cell extract from Sf9 cells overexpressing human full length PDE3A (SB Drug Discovery, UK) in buffer A (50 mM Tris/HCl pH 7.5, 8.3 mM MgCl2, 1.7 mM EDTA, 0.2% BSA) was added. The dilution of the PDE3A cell extract was chosen such that the reaction kinetics was linear and less than 70% of the substrate was consumed (typical dilution 1:5000). The reaction was started by addition of 50 μl (0.025 μCi) of 1:2000 in buffer A w/o BSA diluted substrate [8-3H] adenosine 3′,5′-cyclic phosphate (1 μCi/μl; Perkin Elmer). After incubation at room temperature for 60 min, the reaction was stopped by addition of 25 μl of a suspension containing 18 mg/ml yttrium scintillation proximity beads (Perkin Elmer) in water. The microtiter plates were sealed and measured in a Microbeta scintillation counter (PerkinElmer Wallac). IC50 values were determined from sigmoidal curves by plotting percentage PDE3A activity vs log compound concentration.

T1 sequence (Q13370 whole entry): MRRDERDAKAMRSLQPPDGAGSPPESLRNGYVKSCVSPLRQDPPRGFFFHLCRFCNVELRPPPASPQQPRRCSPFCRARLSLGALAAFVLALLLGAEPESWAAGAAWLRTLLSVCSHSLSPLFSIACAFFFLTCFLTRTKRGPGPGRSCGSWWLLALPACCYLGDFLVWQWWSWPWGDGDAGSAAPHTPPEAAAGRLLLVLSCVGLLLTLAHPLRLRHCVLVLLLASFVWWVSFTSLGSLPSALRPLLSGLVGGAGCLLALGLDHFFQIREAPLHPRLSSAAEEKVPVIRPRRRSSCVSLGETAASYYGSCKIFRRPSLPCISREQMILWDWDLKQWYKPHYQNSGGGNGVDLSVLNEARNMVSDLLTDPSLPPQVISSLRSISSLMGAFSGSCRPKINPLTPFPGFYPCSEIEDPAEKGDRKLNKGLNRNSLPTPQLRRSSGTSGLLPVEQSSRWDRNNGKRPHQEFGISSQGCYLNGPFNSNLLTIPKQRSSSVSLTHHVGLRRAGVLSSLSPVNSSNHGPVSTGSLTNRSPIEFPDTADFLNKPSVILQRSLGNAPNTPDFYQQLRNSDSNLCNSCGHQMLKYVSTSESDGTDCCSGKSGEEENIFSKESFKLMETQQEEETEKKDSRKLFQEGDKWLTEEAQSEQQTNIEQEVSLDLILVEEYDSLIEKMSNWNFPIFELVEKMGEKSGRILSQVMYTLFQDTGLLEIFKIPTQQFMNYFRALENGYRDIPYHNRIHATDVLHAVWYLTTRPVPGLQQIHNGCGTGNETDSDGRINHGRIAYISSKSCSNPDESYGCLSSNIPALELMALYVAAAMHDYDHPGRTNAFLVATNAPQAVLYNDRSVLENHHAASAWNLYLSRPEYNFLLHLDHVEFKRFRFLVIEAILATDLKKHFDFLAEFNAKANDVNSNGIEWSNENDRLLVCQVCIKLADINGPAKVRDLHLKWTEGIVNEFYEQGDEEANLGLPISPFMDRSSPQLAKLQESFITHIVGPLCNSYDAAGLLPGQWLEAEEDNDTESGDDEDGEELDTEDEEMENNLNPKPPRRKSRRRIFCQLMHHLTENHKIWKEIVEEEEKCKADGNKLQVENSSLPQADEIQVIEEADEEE

For `O=C1CCC(c2ccc(N3CC(O)C3)c(C(F)(F)F)c2)=NN1` [Example 24, 6-[4-(3-Hydroxyazetidin-1-yl)-3-(trifluoromethyl)phenyl]-4,5-dihydropyridazin-3(2H)-one], the pIC50 in assay [1] is 6.52; in assay [2] it was 7.82; in assay [3] it was 8.00; in assay [4], 6.46.

Turning to `O=C1CCC(c2ccc(N3CCOCC3)c(F)c2)=NN1` [Example 25, 6-[3-Fluoro-4-(morpholin-4-yl)phenyl]-4,5-dihydropyridazin-3(2H)-one], the pIC50 was 6.80 in assay [1], 7.70 in assay [2], 8.21 in assay [3] and 6.68 in assay [4].

Turning to `Cc1cc(F)ccc1-c1ccc(C2=NNC(=O)CC2)cc1` [Example 26, 6-(4′-Fluoro-2′-methylbiphenyl-4-yl)-4,5-dihydropyridazin-3(2H)-one], the pIC50 in assay [1] was 7.05; in assay [2], 8.44; in assay [3], 8.69; in assay [4], 7.03.

As to `CC(C)=Cc1ccc(C2=NNC(=O)CC2)cc1F` [Example 27, 6-[3-Fluoro-4-(2-methylprop-1-en-1-yl)phenyl]-4,5-dihydropyridazin-3(2H)-one], the pIC50 is 6.85 in assay [1], 8.21 in assay [2], 8.47 in assay [3] and 6.89 in assay [4].

For the compound `Nc1cc(-c2ccc(C3=NNC(=O)CC3)cc2F)ccn1` [Example 28, 6-[4-(2-aminopyridin-4-yl)-3-fluorophenyl]-4,5-dihydropyridazin-3(2H)-one], the pIC50 is 7.05 in assay [1], < 7.00 in assay [2], 7.22 in assay [3] and 7.00 in assay [4].

With `O=C1CCC(c2ccc(-c3cncc(C(F)(F)F)c3)c(F)c2)=NN1` [Example 29, 6-{3-fluoro-4-[5-(trifluoromethyl)pyridin-3-yl]phenyl}-4,5-dihydropyridazin-3(2H)-one], the pIC50 is 6.96 in assay [1], < 7.00 in assay [2], 7.06 in assay [3] and 6.80 in assay [4].

Turning to `O=C1CCC(c2ccc(-c3ccncc3)c(F)c2)=NN1` [Example 30, 6-[3-fluoro-4-(pyridin-4-yl)phenyl]-4,5-dihydropyridazin-3(2H)-one], the pIC50 is 7.51 in assay [1], 7.85 in assay [2], 8.02 in assay [3] and 7.48 in assay [4].

Regarding `Cc1ncc(-c2ccc(C3=NNC(=O)CC3)cc2F)cn1` [Example 31, 6-[3-fluoro-4-(2-methylpyrimidin-5-yl)phenyl]-4,5-dihydropyridazin-3(2H)-one], the pIC50 in assay [1] is 7.03; in assay [2], 7.33; in assay [3], 7.46; in assay [4], 6.80.

As for `COc1cc(-c2ccc(C3=NNC(=O)CC3)cc2F)ccn1` [Example 32, 6-[3-fluoro-4-(2-methoxypyridin-4-yl)phenyl]-4,5-dihydropyridazin-3(2H)-one], the pIC50 in assay [1] was 7.44; in assay [2] it was 7.19; in assay [3], 7.22; in assay [4], 7.19.

On to `Cc1ncccc1-c1ccc(C2=NNC(=O)CC2)cc1F` [Example 33, 6-[3-fluoro-4-(2-methylpyridin-3-yl)phenyl]-4,5-dihydropyridazin-3(2H)-one], for which the pIC50 in assay [1] was 7.17; in assay [2] it was 7.61; in assay [3], 7.84; in assay [4], 7.18.

For the compound `Cc1ccc(-c2ccc(C3=NNC(=O)CC3)cc2F)cn1` [Example 34, 6-[3-fluoro-4-(6-methylpyridin-3-yl)phenyl]-4,5-dihydropyridazin-3(2H)-one], the pIC50 in assay [1] is 7.30; in assay [2], 8.01; in assay [3] it was 8.14; in assay [4], 7.24.

As to `Cc1ccc(-c2ccc(C3=NNC(=O)CC3)cc2F)cc1C` [Example 35, 6-(2-fluoro-3′,4′-dimethyl[1,1′-biphenyl]-4-yl)-4,5-dihydropyridazin-3(2H)-one], the pIC50 in assay [1] was 6.16; in assay [2] it was < 7.00; in assay [3], 7.20; in assay [4], 6.09.

For `C/C=C(\C)c1ccc(C2=NNC(=O)CC2)cc1F` [Example 36, 6-{4-[(2E)-but-2-en-2-yl]-3-fluorophenyl}-4,5-dihydropyridazin-3(2H)-one], the pIC50 is 6.41 in assay [1], 7.84 in assay [2], 8.08 in assay [3] and 6.38 in assay [4].

As to `Cc1ccc(-c2ccc(C3=NNC(=O)CC3)cc2F)c(F)c1` [Example 37, 6-(2,2′-difluoro-4′-methyl[1,1′-biphenyl]-4-yl)-4,5-dihydropyridazin-3(2H)-one], the pIC50 in assay [1] is 7.00; in assay [2] it was 8.14; in assay [3], 8.40; in assay [4], 6.89.

Take `O=C1CCC(c2ccc(-c3cc(F)c(F)cc3F)c(F)c2)=NN1` [Example 38, 6-(2,2′,4′,5′-tetrafluoro[1,1′-biphenyl]-4-yl)-4,5-dihydropyridazin-3(2H)-one]: the pIC50 is 7.00 in assay [1], 7.95 in assay [2], 8.25 in assay [3] and 7.00 in assay [4].

As for `O=C1CCC(c2ccc(-c3ccc(F)c(F)c3F)c(F)c2)=NN1` [Example 39, 6-(2,2′,3′,4′-tetrafluoro[1,1′-biphenyl]-4-yl)-4,5-dihydropyridazin-3(2H)-one], the pIC50 in assay [1] was 7.10; in assay [2], 8.08; in assay [3], 8.28; in assay [4], 7.09.

As to `O=C1CCC(c2ccc(-c3cncnc3)c(F)c2)=NN1` [Example 40, 6-[3-fluoro-4-(pyrimidin-5-yl)phenyl]-4,5-dihydropyridazin-3(2H)-one], the pIC50 in assay [1] is 6.85; in assay [2], 7.32; in assay [3], 7.43; in assay [4] it was 6.85.

For `COc1ccc(OC)c(-c2ccc(C3=NNC(=O)CC3)cc2F)c1` [Example 41, 6-(2-fluoro-2′,5′-dimethoxy[1,1′-biphenyl]-4-yl)-4,5-dihydropyridazin-3(2H)-one], the pIC50 was 7.00 in assay [1], 7.16 in assay [2], 7.29 in assay [3] and 6.82 in assay [4].

Consider `O=C1CCC(c2ccc(-c3cc(F)ccc3F)c(F)c2)=NN1` [Example 42, 6-(2,2′,5′-trifluoro[1,1′-biphenyl]-4-yl)-4,5-dihydropyridazin-3(2H)-one], for which the pIC50 is 7.17 in assay [1], 8.08 in assay [2], 8.28 in assay [3] and 7.10 in assay [4].

Turning to `Nc1ccc(F)cc1-c1ccc(C2=NNC(=O)CC2)cc1F` [Example 43, 6-(2′-amino-2,5′-difluoro[1,1′-biphenyl]-4-yl)-4,5-dihydropyridazin-3(2H)-one], the pIC50 was 6.96 in assay [1], 7.58 in assay [2], 7.82 in assay [3] and 6.96 in assay [4].
